Earlier results, collected in patent publication US20240010628A1, “METHODS OF MANUFACTURE OF R-MDMA” (Mind Medicine, Inc., priority 2022, published 2024).

Tests used:
5-HT2A receptors = 5-HT2A receptors (Homo sapiens, UniProt P28223)
[1] = in vivo
[2] = tested on: parkinsonian animal model
DAT = DAT (Homo sapiens, UniProt Q01959)
SERT = SERT (Homo sapiens, UniProt P31645)
Chain of SERT (P31645 whole entry, species assumed): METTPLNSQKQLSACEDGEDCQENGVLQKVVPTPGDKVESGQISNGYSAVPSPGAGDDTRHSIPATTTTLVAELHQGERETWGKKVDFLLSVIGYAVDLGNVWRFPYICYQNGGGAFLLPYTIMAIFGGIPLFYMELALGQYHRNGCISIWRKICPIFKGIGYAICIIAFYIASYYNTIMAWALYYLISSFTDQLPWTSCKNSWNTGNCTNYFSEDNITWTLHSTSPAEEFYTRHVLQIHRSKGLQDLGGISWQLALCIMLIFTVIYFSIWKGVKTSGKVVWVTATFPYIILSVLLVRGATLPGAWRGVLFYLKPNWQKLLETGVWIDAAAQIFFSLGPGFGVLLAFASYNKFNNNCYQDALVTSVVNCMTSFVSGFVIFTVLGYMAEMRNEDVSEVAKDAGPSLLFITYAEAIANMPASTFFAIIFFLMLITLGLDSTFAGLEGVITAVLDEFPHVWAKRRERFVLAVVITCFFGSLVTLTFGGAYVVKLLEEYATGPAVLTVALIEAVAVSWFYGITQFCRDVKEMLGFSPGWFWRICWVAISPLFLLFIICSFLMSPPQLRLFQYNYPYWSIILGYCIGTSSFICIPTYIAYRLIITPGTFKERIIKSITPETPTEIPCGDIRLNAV

Chain of 5-HT2A receptors (P28223 whole entry): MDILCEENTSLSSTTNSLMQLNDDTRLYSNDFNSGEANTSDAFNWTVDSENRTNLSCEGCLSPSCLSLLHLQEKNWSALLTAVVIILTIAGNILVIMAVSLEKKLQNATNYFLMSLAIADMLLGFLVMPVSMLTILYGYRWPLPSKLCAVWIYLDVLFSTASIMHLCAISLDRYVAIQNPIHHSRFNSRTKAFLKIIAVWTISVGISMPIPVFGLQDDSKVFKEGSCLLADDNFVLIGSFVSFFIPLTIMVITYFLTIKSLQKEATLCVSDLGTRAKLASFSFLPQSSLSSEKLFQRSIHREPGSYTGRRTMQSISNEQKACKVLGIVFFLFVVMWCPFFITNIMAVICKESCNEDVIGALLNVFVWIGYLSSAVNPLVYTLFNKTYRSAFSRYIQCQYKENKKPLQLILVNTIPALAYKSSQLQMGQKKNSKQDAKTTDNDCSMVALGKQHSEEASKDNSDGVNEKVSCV
Chain of DAT (Q01959 whole entry, species assumed): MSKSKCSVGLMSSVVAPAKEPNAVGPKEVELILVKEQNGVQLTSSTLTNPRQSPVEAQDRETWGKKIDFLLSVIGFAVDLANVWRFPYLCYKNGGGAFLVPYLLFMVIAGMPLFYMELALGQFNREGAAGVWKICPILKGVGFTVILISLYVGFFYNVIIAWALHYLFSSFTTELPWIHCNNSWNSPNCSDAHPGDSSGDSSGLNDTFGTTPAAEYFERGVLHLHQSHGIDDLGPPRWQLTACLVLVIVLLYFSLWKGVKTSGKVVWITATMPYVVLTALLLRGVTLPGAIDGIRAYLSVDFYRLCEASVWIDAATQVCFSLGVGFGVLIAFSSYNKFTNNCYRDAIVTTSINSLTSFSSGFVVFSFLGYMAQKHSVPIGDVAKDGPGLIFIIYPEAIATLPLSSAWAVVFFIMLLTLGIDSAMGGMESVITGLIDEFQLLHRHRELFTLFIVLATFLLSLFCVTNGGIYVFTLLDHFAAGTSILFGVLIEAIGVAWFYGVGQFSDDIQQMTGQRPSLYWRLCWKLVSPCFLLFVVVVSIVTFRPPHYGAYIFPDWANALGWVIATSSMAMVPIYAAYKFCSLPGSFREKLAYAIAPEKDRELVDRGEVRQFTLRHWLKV

SMILES | efficacy as a releaser of dopamine (dopamine) | selectivity for 5-HT2A receptors (5-HT2A receptors) | hyperthermia [1] | duration of good ON-time [2] | severity of peak-dose dyskinesia / dyskinesia [2] | affinity for DAT (DAT) | affinity for SERT (SERT) | total duration of ON-time [2]
CN[C@H](C)Cc1ccc2c(c1)OCO2 [R-MDMA, (R)-1-(benzo[d][1,3]dioxol-5-yl)-N-methylpropan-2-amine] | low efficacy | selective compound for 5-HT2A receptors | does not produce hyperthermia | increased | decreased |  |  | 
CN[C@@H](C)Cc1ccc2c(c1)OCO2 [S-MDMA, (S)-1-(benzo[d][1,3]dioxol-5-yl)-N-methylpropan-2-amine] |  |  |  |  | exacerbated | moderate affinity | high affinity | extended
CNC(C)Cc1ccc2c(c1)OCO2 (racemic) [racemic MDMA, 3,4-Methylenedioxymethamphetamine, reference compound] |  |  |  |  | reducing dyskinesia |  |  | extending ON-time
